pIC50, pKi: −log10 of the molar value.
What was measured:
Dipeptidyl peptidase 2 = Dipeptidyl peptidase 2 (Homo sapiens, UniProt Q9UHL4)
Dipeptidyl peptidase 4 = Dipeptidyl peptidase 4 (Homo sapiens, UniProt P27487)
Dipeptidyl peptidase 8 = Dipeptidyl peptidase 8 (Homo sapiens, UniProt Q6V1X1)
Dipeptidyl peptidase 9 = Dipeptidyl peptidase 9 (Homo sapiens, UniProt Q86TI2)
Sequence of Dipeptidyl peptidase 9 (Q86TI2 whole entry): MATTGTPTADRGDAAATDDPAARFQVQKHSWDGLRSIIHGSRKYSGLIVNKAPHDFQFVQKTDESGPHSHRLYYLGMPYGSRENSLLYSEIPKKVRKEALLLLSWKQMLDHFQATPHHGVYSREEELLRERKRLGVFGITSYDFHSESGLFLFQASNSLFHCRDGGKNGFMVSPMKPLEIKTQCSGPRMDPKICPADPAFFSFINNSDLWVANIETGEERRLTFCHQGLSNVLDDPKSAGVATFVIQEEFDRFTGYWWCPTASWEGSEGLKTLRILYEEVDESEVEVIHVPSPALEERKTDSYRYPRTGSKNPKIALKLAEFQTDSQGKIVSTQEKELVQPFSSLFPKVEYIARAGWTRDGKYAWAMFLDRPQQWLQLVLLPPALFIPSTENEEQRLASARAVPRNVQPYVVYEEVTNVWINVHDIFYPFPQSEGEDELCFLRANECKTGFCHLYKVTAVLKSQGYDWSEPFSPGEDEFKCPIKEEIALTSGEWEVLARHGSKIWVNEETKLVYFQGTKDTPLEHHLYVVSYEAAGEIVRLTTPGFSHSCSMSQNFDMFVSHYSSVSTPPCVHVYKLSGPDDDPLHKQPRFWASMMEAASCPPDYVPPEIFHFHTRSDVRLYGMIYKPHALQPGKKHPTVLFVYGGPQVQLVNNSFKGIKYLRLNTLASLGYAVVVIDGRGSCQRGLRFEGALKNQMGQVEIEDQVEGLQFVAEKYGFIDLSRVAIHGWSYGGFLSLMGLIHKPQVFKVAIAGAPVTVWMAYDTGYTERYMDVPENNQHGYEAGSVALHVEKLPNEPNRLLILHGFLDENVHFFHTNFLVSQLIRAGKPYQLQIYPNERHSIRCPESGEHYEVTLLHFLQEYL

Sequence of Dipeptidyl peptidase 8 (Q6V1X1 whole entry): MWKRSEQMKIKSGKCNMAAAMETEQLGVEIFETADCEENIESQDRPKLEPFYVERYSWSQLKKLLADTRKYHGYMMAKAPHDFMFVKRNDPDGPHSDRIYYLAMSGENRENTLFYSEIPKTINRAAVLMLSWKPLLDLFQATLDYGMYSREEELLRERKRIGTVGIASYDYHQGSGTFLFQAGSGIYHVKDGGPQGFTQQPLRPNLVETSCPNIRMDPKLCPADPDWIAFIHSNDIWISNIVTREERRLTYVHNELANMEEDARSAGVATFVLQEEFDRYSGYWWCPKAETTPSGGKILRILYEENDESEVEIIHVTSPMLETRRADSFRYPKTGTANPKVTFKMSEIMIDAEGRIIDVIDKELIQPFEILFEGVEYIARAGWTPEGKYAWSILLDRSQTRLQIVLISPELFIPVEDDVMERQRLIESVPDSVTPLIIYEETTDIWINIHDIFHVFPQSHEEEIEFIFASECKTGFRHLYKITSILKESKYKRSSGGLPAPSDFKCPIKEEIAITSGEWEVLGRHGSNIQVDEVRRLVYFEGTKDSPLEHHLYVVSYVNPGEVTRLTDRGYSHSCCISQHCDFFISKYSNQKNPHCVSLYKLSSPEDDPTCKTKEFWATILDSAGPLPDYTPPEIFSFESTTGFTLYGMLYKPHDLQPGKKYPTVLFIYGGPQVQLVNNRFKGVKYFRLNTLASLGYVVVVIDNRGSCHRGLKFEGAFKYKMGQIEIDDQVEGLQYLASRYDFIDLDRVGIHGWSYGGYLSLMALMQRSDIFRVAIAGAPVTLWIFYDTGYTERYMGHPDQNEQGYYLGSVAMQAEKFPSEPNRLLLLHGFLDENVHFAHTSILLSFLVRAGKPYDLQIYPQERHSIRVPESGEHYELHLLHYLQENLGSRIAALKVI
Sequence of Dipeptidyl peptidase 4 (P27487 whole entry): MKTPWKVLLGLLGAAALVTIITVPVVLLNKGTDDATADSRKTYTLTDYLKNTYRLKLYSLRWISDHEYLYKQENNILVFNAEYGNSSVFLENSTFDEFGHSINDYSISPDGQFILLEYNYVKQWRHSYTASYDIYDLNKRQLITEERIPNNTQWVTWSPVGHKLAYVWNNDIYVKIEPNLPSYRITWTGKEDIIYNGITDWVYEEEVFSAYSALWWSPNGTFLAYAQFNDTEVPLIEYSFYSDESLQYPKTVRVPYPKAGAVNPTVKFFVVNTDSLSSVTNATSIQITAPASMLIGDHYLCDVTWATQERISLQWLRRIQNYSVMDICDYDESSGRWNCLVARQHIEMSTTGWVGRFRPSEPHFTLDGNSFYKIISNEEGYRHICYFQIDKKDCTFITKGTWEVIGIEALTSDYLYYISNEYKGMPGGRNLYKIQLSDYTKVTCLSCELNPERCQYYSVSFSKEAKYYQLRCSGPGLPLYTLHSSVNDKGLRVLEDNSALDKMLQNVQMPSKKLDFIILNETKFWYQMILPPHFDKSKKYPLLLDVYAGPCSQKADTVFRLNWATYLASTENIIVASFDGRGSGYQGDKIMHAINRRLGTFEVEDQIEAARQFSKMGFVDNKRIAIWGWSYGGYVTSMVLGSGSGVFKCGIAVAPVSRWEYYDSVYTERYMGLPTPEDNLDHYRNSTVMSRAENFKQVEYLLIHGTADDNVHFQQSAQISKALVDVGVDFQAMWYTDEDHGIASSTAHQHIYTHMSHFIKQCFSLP

pIC50 (Dipeptidyl peptidase 2) | pIC50 (Dipeptidyl peptidase 4) | pIC50 (Dipeptidyl peptidase 8) | pIC50 (Dipeptidyl peptidase 9) | pKi (Dipeptidyl peptidase 2) | SMILES
4.22 | 4.82 | – | – | – | CCCC[C@H](N)C(=O)N1CCCC1
3.82 | 3.73 | < 3.30 | – | – | NC(=O)C[C@H](N)C(=O)N1CCCC1
3.41 | < 3.00 | 3.51 | < 4.00 | – | NCCCC[C@H](N)C(=O)N1CCCc2ccccc21
3.91 | 4.62 | – | – | – | CC(C)C[C@H](N)C(=O)N1CCCC1
5.54 | 4.64 | – | – | – | NCCCC[C@H](N)C(=O)N1CCSC1
< 3.00 | < 3.00 | < 3.00 | < 4.00 | – | N[C@@H](CCC(=O)O)C(=O)N1CCCC1
5.31 | – | – | – | – | [N-]=[N+]=NC1CCN(C(=O)[C@@H](N)CCCCN)C1 (stereo partly specified)
5.24 | 4.81 | – | – | – | N[C@@H](CCCCNC(=O)OCc1ccccc1)C(=O)N1CCCC1
5.01 | 3.93 | – | – | – | NCCC[C@H](N)C(=O)N1CCCC1
5.43 | 5.01 | – | – | – | N[C@@H](CCCNC(=O)OCc1ccccc1)C(=O)N1CCCC1
4.37 | 3.97 | – | – | – | CC[C@H](C)[C@H](N)C(=O)N1CCC(N=[N+]=[N-])C1 (stereo partly specified)
5.99 | 5.43 | – | – | – | N[C@@H](CCCCNC(=O)OCc1ccccc1)C(=O)N1CCSC1
5.51 | 4.90 | – | – | – | N=C(N)NCCC[C@H](N)C(=O)N1CCCC1
4.32 | 3.30 | 3.86 | – | – | NCCCC[C@H](N)C(=O)N1CCC(O)C1 (stereo partly specified)
6.24 | – | – | – | – | N#C[C@@H]1CCCN1C(=O)[C@@H](N)CCCCN
5.82 | 4.29 | – | – | – | N#C[C@@H]1CCCCN1C(=O)[C@@H](N)CCCCN
6.08 | 7.46 | – | – | – | N#C[C@@H]1CCCN1C(=O)[C@@H](N)CCCCNC(=O)OCc1ccccc1
6.51 | 5.66 | – | – | – | N#C[C@@H]1C[C@H](N=[N+]=[N-])CN1C(=O)[C@@H](N)CCCCN
6.46 | 6.28 | – | – | – | N#C[C@@H]1C[C@H](N=[N+]=[N-])CN1C(=O)[C@@H](N)CCCCNC(=O)OCc1ccccc1
7.47 | 6.25 | – | – | – | N#C[C@@H]1C[C@H](N=[N+]=[N-])CN1C(=O)[C@@H](N)CCCCNc1ccc2ccccc2c1
7.17 | – | – | – | – | N#C[C@@H]1C[C@H](N=[N+]=[N-])CN1C(=O)[C@@H](N)CCCCN(c1ccc2ccccc2c1)c1ccc2ccccc2c1
5.00 | 4.41 | – | – | – | NCCCC[C@H](N)C(=O)N1CCCC1
3.41 | < 3.00 | < 3.30 | < 4.00 | – | N[C@@H](CCCCNC(=O)OCc1ccccc1)C(=O)N1CCCc2ccccc21
7.60 | 5.60 | – | – | – | N#C[C@@H]1C[C@H](N=[N+]=[N-])CN1C(=O)[C@@H](N)CCCCN(c1cccc2ccccc12)c1cccc2ccccc12
> 9.30 | – | – | 4.12 | 10.09 | N[C@@H](CCNCc1ccc(Cl)cc1)C(=O)N1CCCCC1

Continued, compound first:

SMILES | pIC50 (Dipeptidyl peptidase 2) | pIC50 (Dipeptidyl peptidase 4) | pIC50 (Dipeptidyl peptidase 8) | pIC50 (Dipeptidyl peptidase 9) | pKi (Dipeptidyl peptidase 2)
CC(C)[C@H](N)C(=O)N1CCCC1 | 3.82 | – | – | – | –
C[C@H](N)C(=O)N1CCCC1 | – | – | 3.39 | – | –
CC[C@H](C)[C@H](N)C(=O)N1CCCCCC1 | 3.64 | 3.43 | 3.21 | < 4.00 | –
N[C@@H](Cc1c[nH]c2ccccc12)C(=O)N1CCCC1 | 4.31 | 3.54 | 3.62 | < 4.00 | –
CC[C@H](C)[C@H](N)C(=O)N1CC=CCC1 | 4.28 | 4.28 | – | < 4.30 | –
N[C@@H](Cc1ccccc1)C(=O)N1CCCC1 | 4.10 | 4.68 | 3.94 | – | –
CC[C@H](C)[C@H](N)C(=O)NC1CCCC1 | < 4.00 | < 3.00 | < 3.00 | < 4.00 | –
N[C@@H](CS)C(=O)N1CCCC1 | 4.72 | 4.43 | – | – | –
C[C@@H](O)[C@H](N)C(=O)N1CCCC1 | 3.64 | 4.01 | – | – | –
N[C@@H](CO)C(=O)N1CCCC1 | 4.19 | 3.72 | < 3.30 | – | –
CC[C@H](C)[C@H](N)C(=O)N1CCC(F)C1 (stereo partly specified) | 3.95 | 5.46 | – | – | –
CC[C@H](C)[C@H](N)C(=O)N1CCC(Cl)C1 (stereo partly specified) | 4.52 | 4.03 | – | – | –
N=C(NCCC[C@H](NC(=O)OCc1ccccc1)C(=O)N1CCCC1)NC(=O)OCc1ccccc1 | 6.07 | 4.77 | – | – | –
CC[C@H](C)[C@H](N)C(=O)N1CC=CC1 | 3.54 | 4.82 | – | – | –
CC[C@H](C)[C@H](N)C(=O)N1CCC1 | 3.14 | 4.30 | 3.90 | < 4.00 | –
N[C@@H](CC(=O)O)C(=O)N1CCCC1 | – | – | < 3.00 | – | –
N[C@@H](Cc1c[nH]cn1)C(=O)N1CCCC1 | 5.92 | 4.64 | < 3.30 | < 4.00 | –
CC[C@H](C)[C@H](N)C(=O)N1CCC(O)C1 (stereo partly specified) | 3.52 | 4.03 | 3.89 | < 4.00 | –
CC(C)[C@H](N)C(=O)N1CSC[C@H]1B(O)O | 7.07 | – | – | – | –
N[C@@H](Cc1ccc(O)cc1)C(=O)N1CCCC1 | 4.80 | 4.36 | – | – | –
CC[C@H](C)[C@H](N)C(=O)N1CCCCC1 | 4.23 | 4.17 | – | – | –
NCC(=O)N1CCCC1 | – | – | < 3.00 | < 3.00 | –

Reference: ChEMBL document CHEMBL1154997, “Inhibitors of dipeptidyl peptidase 8 and dipeptidyl peptidase 9. Part 1: identification of dipeptide derived leads” (Bioorg Med Chem Lett, 2008)
